From article PMC4058118, “Impact of Wines and Wine Constituents on Cyclooxygenase-1, Cyclooxygenase-2, and 5-Lipoxygenase Catalytic Activity” (Mediators of Inflammation, 2014)
Read-outs that look alike come from different tables or passages of the source. Values belong to the compound of their own block, whether it stands above or below them.

How the values were obtained:
5-LOX = molecular target: T1, 5-LOX (Homo sapiens, UniProt P09917); assay: 5-LOX assay (LTB4 formation in cells from buffy coat, ELISA); format: cell-based
T1 construct: endogenous in cells; host or cells: leukocytes isolated from buffy coat of healthy donors
T1 sequence (P09917 1-674): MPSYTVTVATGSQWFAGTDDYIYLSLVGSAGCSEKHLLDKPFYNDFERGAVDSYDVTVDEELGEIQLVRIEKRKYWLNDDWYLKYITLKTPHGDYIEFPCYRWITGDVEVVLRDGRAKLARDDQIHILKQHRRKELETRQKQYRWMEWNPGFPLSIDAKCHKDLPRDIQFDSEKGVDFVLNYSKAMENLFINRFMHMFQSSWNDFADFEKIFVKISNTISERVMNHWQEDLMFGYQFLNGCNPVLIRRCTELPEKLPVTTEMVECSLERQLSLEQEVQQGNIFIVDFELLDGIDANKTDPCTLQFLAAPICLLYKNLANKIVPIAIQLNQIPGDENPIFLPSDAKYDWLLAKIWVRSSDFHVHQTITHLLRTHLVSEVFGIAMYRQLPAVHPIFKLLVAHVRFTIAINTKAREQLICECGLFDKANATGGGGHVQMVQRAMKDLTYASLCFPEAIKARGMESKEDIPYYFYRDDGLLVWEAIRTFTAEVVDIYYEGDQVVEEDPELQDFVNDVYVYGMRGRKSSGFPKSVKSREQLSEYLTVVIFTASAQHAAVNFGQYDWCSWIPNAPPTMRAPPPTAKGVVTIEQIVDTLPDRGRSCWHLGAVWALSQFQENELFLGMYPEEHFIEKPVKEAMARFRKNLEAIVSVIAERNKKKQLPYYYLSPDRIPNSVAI

human recombinant COX-2 = molecular target: T2, human recombinant COX-2 (Homo sapiens, UniProt P35354); assay: COX-2 assay (PGE2 formation, ELISA); format: biochemical; conditions: for IC50: read-out: IC50 COX-2 (dash)
T2 construct: purchased Sigma-Aldrich (Czech Republic)
T2 sequence (P35354 18-604): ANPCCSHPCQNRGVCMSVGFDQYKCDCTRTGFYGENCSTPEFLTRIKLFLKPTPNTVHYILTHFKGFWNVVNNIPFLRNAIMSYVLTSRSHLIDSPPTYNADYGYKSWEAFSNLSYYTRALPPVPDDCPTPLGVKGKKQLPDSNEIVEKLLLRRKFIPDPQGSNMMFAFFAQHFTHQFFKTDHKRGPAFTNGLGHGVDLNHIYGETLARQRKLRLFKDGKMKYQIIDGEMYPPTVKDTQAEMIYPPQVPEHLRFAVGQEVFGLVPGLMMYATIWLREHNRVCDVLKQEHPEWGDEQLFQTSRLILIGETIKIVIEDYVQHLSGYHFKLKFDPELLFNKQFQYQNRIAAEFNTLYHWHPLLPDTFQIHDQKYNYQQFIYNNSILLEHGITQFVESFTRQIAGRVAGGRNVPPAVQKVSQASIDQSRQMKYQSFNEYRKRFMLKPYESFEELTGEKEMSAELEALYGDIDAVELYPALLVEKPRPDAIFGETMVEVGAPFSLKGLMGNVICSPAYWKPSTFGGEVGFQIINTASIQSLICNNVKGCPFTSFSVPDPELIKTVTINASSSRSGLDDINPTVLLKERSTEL

[1] = molecular target: T3, COX-1 from ram seminal vesicles (Ovis aries, UniProt P05979); assay: COX-1 assay (PGE2 formation, ELISA); format: biochemical
T3 construct: COX-1 from ram seminal vesicles; purchased Sigma-Aldrich (Czech Republic); host or cells: ram seminal vesicles (tissue-derived enzyme)
T3 sequence (P05979 25-600): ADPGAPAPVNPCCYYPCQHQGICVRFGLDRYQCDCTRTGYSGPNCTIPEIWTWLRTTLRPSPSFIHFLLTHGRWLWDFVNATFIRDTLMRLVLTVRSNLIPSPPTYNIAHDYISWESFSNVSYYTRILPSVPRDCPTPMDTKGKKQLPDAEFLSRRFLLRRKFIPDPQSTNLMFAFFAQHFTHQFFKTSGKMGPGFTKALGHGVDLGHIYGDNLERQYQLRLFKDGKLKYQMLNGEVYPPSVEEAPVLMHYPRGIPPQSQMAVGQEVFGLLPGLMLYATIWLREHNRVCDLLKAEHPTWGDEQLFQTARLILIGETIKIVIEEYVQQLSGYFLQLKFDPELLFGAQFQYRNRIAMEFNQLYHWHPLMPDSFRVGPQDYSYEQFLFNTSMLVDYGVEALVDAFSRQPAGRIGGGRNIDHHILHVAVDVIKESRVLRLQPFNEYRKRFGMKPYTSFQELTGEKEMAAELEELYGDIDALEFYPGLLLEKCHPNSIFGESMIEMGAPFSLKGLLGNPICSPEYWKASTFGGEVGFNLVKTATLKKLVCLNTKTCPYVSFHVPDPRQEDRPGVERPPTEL

COX-1 = conditions: cited from earlier work
COX-2 = conditions: cited from earlier work
[2] = mean ± SD, read-out: IC50 ± SD COX-1
[3] = dash = IC50 > 50 μM, read-out: IC50 COX-1 (dash)
[4] = mean ± SD, read-out: IC50 ± SD 5-LOX

IC50 (5-LOX; read-out: IC50 5-LOX (dash)): > 50 µM
IC50 (human recombinant COX-2): > 50 µM
IC50 [1, 2]: 43.8 ± 18.8 µM
SMILES: O=c1c(O)c(-c2ccc(O)cc2)oc2cc(O)cc(O)c12 [Kaempferol, kaempferol]

SMILES: O=c1c(O)c(-c2cc(O)c(O)c(O)c2)oc2cc(O)cc(O)c12 [Myricetin, myricetin]
IC50 (5-LOX): 4.02 ± 2.37 µM
IC50 (human recombinant COX-2): > 50 µM
IC50 [1, 3]: > 50 µM

SMILES: Oc1ccc(/C=C/c2cc(O)cc(O)c2)cc1 [Resveratrol, trans-resveratrol]
IC50 (5-LOX; read-out: IC50 5-LOX (dash)): > 50 µM
IC50 [1, 2]: 2.27 ± 1.17 µM

SMILES: O=c1c(O)c(-c2ccc(O)c(O)c2)oc2cc(O)cc(O)c12 [Quercetin, quercetin]
IC50 (human recombinant COX-2): > 50 µM
IC50 [1, 2]: 43.8 µM
IC50 ([1]; read-out: IC50 COX-1 (dash)): > 50 µM

SMILES: Oc1cc(O)c2c(c1)O[C@H](c1ccc(O)c(O)c1)[C@@H](O)C2 [(+)-catechin]
COX-2 inhibitory activity (human recombinant COX-2; 50 μM concentration): inactive
COX-1 inhibitory activity ([1]; 50 μM concentration): inactive

SMILES: Oc1cc(O)cc(/C=C/c2ccc(O)c(O)c2)c1 [Piceatannol, piceatannol]
IC50 (5-LOX; [4]): 0.76 ± 0.35 µM
IC50 (human recombinant COX-2): > 50 µM
IC50 (COX-1; ref 5 (Murias et al.)): 4.71 µM
inhibition of COX-1 (COX-1; ref 38 (Lee et al.)): no inhibition
IC50 (COX-1; ref 39 (Gerhäuser et al.)): 81.4 µM
IC50 (COX-2; ref 5 (Murias et al.)): 0.0113 µM
inhibition of COX-2 (COX-2; ref 38 (Lee et al.)): no inhibition
IC50 [1]: > 50 µM

IC50 (5-LOX; [4]): 2.25 ± 1.75 µM
IC50 (human recombinant COX-2): > 50 µM
IC50 [1, 3]: > 50 µM
SMILES: O=c1cc(-c2ccc(O)c(O)c2)oc2cc(O)cc(O)c12 [Luteolin, luteolin]
